Experimental findings from patent US20250154455A1, “BIOACTIVE AND ANTIOXIDANT SUPRAMOLECULAR POLYMER HYDROGELS FOR NEURAL CELL CULTURE” (Northwestern University, priority 2023, published 2025) are described below.

A short description of the experiment: Hydrogen peroxide remaining in solutions of PA or PEDOT-S/OH. The following applies: hydrogen peroxide solution, after 3 days. As for the experimental part: The presence of ROS was determined using CellROX Green Reagent (ThermoFisher). Briefly, CellROX was added to cells for a final concentration of 5 μM and incubated for 30 mins at 37° C. Wells were washed 3× with PBS and fluorescence intensity was read at 485/520 nm using Cyation3. For solution studies, CellROX was added to solutions of PEDOT or PA containing 10 μM H2O2 at various time points.

In the case of C16-A2G2E4GIKVAV [PA], the peroxide still present is on record as around 75%.
